The structures appear in SMILES notation. Numbering of substitutions follows the chain as printed.

The kcat is the maximal rate divided by the concentration of active sites. One may read the kcat/Km as the second-order rate constant that governs catalysis at low substrate concentration.

Common to all, as to assay type: biochemical
Common to all, as to details: 30° C., pH 5.0, sodium pyrophosphate, 1-1,000 mM

The target in assay [1] is T1, Pseudomonas aeruginosa acid phosphatase PaAPase, wild type (WT), SEQ ID NO: 1 (Pseudomonas aeruginosa, UniProt A0A0D6FFE3).
T1 construct: 217 aa form
T1 sequence (A0A0D6FFE3 entry or part of it): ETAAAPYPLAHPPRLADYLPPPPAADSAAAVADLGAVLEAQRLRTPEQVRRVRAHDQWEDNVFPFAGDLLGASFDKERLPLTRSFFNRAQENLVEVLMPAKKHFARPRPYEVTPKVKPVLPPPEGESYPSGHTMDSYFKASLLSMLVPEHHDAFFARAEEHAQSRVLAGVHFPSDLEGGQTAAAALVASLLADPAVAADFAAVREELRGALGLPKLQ
In words: Determination of kinetic parameters (phosphorylation of L-ascorbic acid to L-ascorbate-2-phosphate), wild type. As to the method: (§1) The activities of PaAPase and mutants thereof were determined with high-performance liquid chromatography. 500 μL of a substrate solution (500 mM L-ascorbic acid and 500 mM sodium pyrophosphate) (pH 5.0) and 5 μL of the enzyme liquid react at 30° C. for 30 min, and 95 μL of 42% phosphoric acid was added to terminate the reaction, where an activity unit was defined as the amount of enzyme required for producing 1 μmol of L-ascorbate-2-phosphate within 1 min (Table 3).
(§2) The kinetic parameters, including Vmax, Km and kcat, were calculated by measuring the generation rates of initial products of L-ascorbic acid and L-ascorbate-2-phosphate (1-1,000 mM) at different concentrations at 30° C. and under other conditions consistent with those of the determination of specific enzyme activity.

Assay [2] has as its target T2, Pseudomonas aeruginosa acid phosphatase PaAPase variant PaAPaseMu1 (D135R), SEQ ID NO: 19 (Pseudomonas aeruginosa, UniProt A0A0D6FFE3, D159R).
T2 construct: 217 aa form
T2 sequence (A0A0D6FFE3 25-241 D159R): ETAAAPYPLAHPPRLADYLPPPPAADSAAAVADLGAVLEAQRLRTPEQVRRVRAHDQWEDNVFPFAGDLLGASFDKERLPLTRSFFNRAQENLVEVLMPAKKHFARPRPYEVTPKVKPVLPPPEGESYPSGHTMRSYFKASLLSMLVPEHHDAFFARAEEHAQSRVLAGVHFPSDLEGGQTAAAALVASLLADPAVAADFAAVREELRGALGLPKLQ
In words: Determination of kinetic parameters (phosphorylation of L-ascorbic acid to L-ascorbate-2-phosphate), Mu1. As to the method:
as §1, §2

Assay [3] deals with T3, Pseudomonas aeruginosa acid phosphatase PaAPase variant PaAPaseMu2 (W58P/D135R), SEQ ID NO: 21 (Pseudomonas aeruginosa, UniProt A0A0D6FFE3, D159R/W82P).
T3 construct: 217 aa form
T3 sequence (A0A0D6FFE3 25-241 W82P/D159R): T2 sequence (A0A0D6FFE3 25-241 D159R) with W58P
The assay can be described thus: Determination of kinetic parameters (phosphorylation of L-ascorbic acid to L-ascorbate-2-phosphate), Mu2. The protocol: as §1, §2

The target in assay [4] is T4, Pseudomonas aeruginosa acid phosphatase PaAPase variant PaAPaseMu3 (Q57H/W58P/D135R), SEQ ID NO: 22 (Pseudomonas aeruginosa, UniProt A0A0D6FFE3, D159R/Q81H/W82P).
T4 construct: 217 aa form
T4 sequence (A0A0D6FFE3 25-241 Q81H/W82P/D159R): T2 sequence (A0A0D6FFE3 25-241 D159R) with Q57H, W58P

As to `O=C1O[C@H]([C@@H](O)CO)C(O)=C1O` [L-ascorbic acid], the kcat in assay [1] was found to be 16.3 s⁻¹; in assay [2] it was 18.7 s⁻¹; in assay [3], 19.2 s⁻¹; in assay [4], 20.1 s⁻¹. Moreover, the specificity constant (kcat/Km) is 56.3 M⁻¹ s⁻¹ in assay [1], 76.3 M⁻¹ s⁻¹ in assay [2], 86.2 M⁻¹ s⁻¹ in assay [3] and 95.3 M⁻¹ s⁻¹ in assay [4].

The values are drawn from patent US20220204953A1, “Mutant of Acid Phosphatase and Application Thereof” (priority 2021, published 2022).
